These results are taken from US20050266515A1, “Glyceraldehyde 3-phosphate dehydrogenase-S (GAPDHS), a glycolytic anzyme expressed only in male germ cells, is a target for male contraception” (The University of North Carolina at Chapel Hill, priority 2002, published 2005).

Read-outs that look alike come from different tables or passages of the source. Some results are limits rather than exact numbers.

Type in all cases: biochemical
Experiment [1] has as its target T1, truncated form of human GAPDHS (Mus musculus, UniProt Q64467).
T1 construct: tGapdhs, amino acids 106-438; made in house; host or cells: E. coli K-12 strain DS112 (gapA-deficient)
Kind of experiment: Inhibition of dehydrogenase activity of recombinant truncated GAPDHS (NADH accumulation at 340 nm).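 Also: recombinant enzyme (1 µg) in glycine–phosphate–EDTA buffer pH 8.9, inhibitors tested from 1 µM to 3 mM, activity relative to DMSO-only controls taken as 100%.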

In experiment [2] the test system is truncated form of human GAPDHS. The description is as above. To be noted: comparison of IC50 values of Tables 7, 9 and 11.
A further experiment concerns the target T2, recombinant human GAPDH (Mus musculus, UniProt P16858).
T2 construct: made in house; host or cells: E. coli K-12 strain DS112 (gapA-deficient)
Kind of experiment: Inhibition of dehydrogenase activity of recombinant somatic GAPDH (NADH accumulation at 340 nm). To be noted: 1 hour preincubation at 4° C., 0.5 mM NAD, 0.5 mM glyceraldehyde-3-phosphate. The source says:
In subsequent studies to test inhibitors identified in computer docking studies, recombinant mouse Gapdh and the truncated form of Gapdhs (tGapdhs, amino acids 106-438) were expressed in DS112 gapA-deficient E. coli strain K-12 (available from the Yale University E. coli Genetics Stock Center, New Haven, Conn., United States of America). The truncated Gapdhs lacks the proline-rich N-terminus, but contains all the amino acids required for enzyme activity. The recombinant proteins were purified and activities were determined with a standard enzyme assay (Schmalhausen et al., 1997). Using this assay, the dehydrogenase activity of Gapdh and tGapdhs was monitored at 340 nm by measuring the accumulation of NADH.
The reaction mixture (200 μl) contained 50 mM glycine, 50 mM potassium phosphate, 5 mM EDTA (pH 8.9), 1 μg of recombinant enzyme (Gapdh or tGapdhs), 0.5 mM NAD, and 0.5 mM glyceraldehyde-3-phosphate. Activities of Gapdh and tGapdh were compared in the presence of various concentrations of inhibitors. Compounds identified as potential inhibitors in modeling studies as described herein were obtained from Ryan Scientific (Mt. Pleasant, S.C., United States of America). Stocks for each compound were prepared by dissolving 5 mg in 50 μl of DMSO. These stocks were divided into 10 μl aliquots and frozen at −20° C.
To monitor inhibition, each compound (1 μM to 3 mM) was added to the above reaction mixture (without NAD and glyceraldehyde-3-phosphate) and incubated for 1 hour at 4° C. After the 1 hour incubation period, NAD and glyceraldehyde-3-phosphate were added to start the reaction. In each assay, controls containing equal amounts of DMSO were included to determine values for 100% activity. The IC50 for each compound was calculated as the concentration required to reduce dehydrogenase activity to 50% of the activity of control samples.

The target in experiment [3] is T3, truncated Gapdhs (tGapdhs; amino acids 106-438 of mouse Gapdhs) (Mus musculus, UniProt Q64467).
T3 construct: containing amino acids 106-438 of mouse Gapdhs; GST (cleaved yes); made in house
Kind of experiment: Inhibition of recombinant tGapdhs by adenine nucleotides (NAD reduction at 340 nm, 96-well format). To be noted: for inhibition of tGapdhs: recombinant enzyme, result in words.

The next experiment deals with T4, Recombinant mouse Gapdh (Mus musculus, UniProt P16858).
T4 construct: GST (cleaved yes); made in house
Description: Inhibition of recombinant Gapdh by adenine nucleotides (NAD reduction at 340 nm, 96-well format). The following applies: for inhibition of Gapdhs (the other recombinant enzyme beside tGapdhs): result in words.

[4] abbreviates: Table 9, 1 hour preincubation at 4° C., 0.5 mM NAD, 0.5 mM glyceraldehyde-3-phosphate, read-out: IC50 GAPDHS.
[5] abbreviates: competitive inhibitors of NAD cofactor binding, read-out: calculated Ki for tGapdhs.
The mark [6] stands for this setting: competitive inhibitors of NAD cofactor binding, read-out: calculated Ki for Gapdh.
Setting [7] is: Table 7, 1 hour preincubation at 4° C., 0.5 mM NAD, 0.5 mM glyceraldehyde-3-phosphate, read-out: IC50 GAPDHS.
Where [8] appears, read: Table 11, 1 hour preincubation at 4° C., 0.5 mM NAD, 0.5 mM glyceraldehyde-3-phosphate, read-out: IC50 GAPDHS.

T1 sequence (Q64467 108-440): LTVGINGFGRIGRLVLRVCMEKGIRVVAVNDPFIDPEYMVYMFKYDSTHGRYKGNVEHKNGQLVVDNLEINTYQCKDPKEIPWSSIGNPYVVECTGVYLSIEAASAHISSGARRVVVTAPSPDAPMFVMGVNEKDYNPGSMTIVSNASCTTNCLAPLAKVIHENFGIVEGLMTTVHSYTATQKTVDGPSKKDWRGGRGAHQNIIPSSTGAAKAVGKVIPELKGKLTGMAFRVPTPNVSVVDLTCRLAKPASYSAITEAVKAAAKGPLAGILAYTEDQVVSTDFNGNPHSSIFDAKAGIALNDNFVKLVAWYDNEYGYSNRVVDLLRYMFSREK
T3 sequence (Q64467 108-440): as above
T4 sequence (P16858 whole entry): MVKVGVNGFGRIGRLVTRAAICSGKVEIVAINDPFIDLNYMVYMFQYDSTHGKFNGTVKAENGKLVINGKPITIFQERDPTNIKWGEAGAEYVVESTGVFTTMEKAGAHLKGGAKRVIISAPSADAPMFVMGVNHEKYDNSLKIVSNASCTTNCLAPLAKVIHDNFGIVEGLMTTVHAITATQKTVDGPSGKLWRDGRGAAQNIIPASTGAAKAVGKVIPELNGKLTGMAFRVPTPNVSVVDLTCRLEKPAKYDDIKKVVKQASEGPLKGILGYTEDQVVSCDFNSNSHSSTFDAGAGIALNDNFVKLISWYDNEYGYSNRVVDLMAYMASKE
T2 sequence (P16858 whole entry): as above

Turning to “3-(1H-Imidazolo-4-yl)-2-[3-(4-sulfamoyl-benzyl)-thioureido]-propionic acid [LT_00729760]”, in experiment [1] (setting [4]), the IC50 amounted to 2000 µM.

As for “4-(1-Benzyl-IH-indol-3y1)-3,4-dihydro-benzo[4,5]imidazo[1,2-a][1,3,5]triazin-2-ylamine [Compound T0501_7933]”, the IC50 is 10 to 25 µM in experiment [1] (setting [4]) and > 500 µM at recombinant human GAPDH (Table 9). For the same compound, the “selective inhibition: Gapdhs compared to Gapdh” value (“selective inhibition: Gapdhs” below) in experiment [2] was “greater inhibition of Gapdhs than Gapdh”.

Take “4-Amino-N-(4-methoxy-phenyl)-3-nitro-benzenesulfonamide-cyclohexyl-urea [Compound T0506_9350]”: at recombinant human GAPDH (Table 9), the IC50 is > 1000 µM.

As for `Nc1ncnc2c1ncn2[C@@H]1O[C@H](COP(=O)(O)OP(=O)(O)O)[C@@H](O)[C@H]1O` [ADP], the figures for the inhibition constant (Ki) (in experiment [3] (setting [5]); on Recombinant mouse Gapdh (setting [6])) were 3970 µM and 1790 µM, respectively. Further, in experiment [3], the “inhibition of tGapdhs” value is reported as “dose-dependent inhibition”. Further, the “inhibition of Gapdhs (the other recombinant enzyme beside tGapdhs)” value (from here on “inhibition of Gapdhs”) on Recombinant mouse Gapdh is on record as “dose-dependent inhibition”.

As to `Nc1ncnc2c1ncn2[C@@H]1O[C@H](COP(=O)(O)O)[C@@H](O)[C@H]1O` [AMP], the Ki is 3130 µM in experiment [3] (setting [5]) and 1610 µM on Recombinant mouse Gapdh (setting [6]). Moreover, the “inhibition of tGapdhs” value in experiment [3] is “dose-dependent inhibition”. Also, the “inhibition of Gapdhs” value at Recombinant mouse Gapdh is reported as “dose-dependent inhibition”.

Take `Nc1ncnc2c1ncn2[C@@H]1O[C@H](COP(=O)(O)OP(=O)(O)OP(=O)(O)O)[C@@H](O)[C@H]1O` [ATP, adenosine triphosphate]: the figures for the inhibitory constant (Ki) (in experiment [3] (setting [5]); on Recombinant mouse Gapdh (setting [6])) were 6480 µM and 1270 µM, respectively. In addition, the “inhibition of Gapdhs” value on Recombinant mouse Gapdh is on record as “dose-dependent inhibition”.

As for `Clc1ccc(N=c2ssnc2Cl)c(Cl)c1` [Compound 11K_064, 2,4-dichloro-N-(4chloro-5H-1,2,3-dithiazol-5-yliden)aniline], the IC50 is 500 µM in experiment [1] (setting [7]) and 100 µM on recombinant human GAPDH (Table 7).

For `Cc1ccc(S(=O)(=O)c2c(N)n(CC(O)c3ccc([N+](=O)[O-])cc3)c3nc4ccccc4nc23)cc1` (stereo not drawn) [Compound T0501_7749, 2-[2-Amino-3-(toluene-4-sulfonyl)-pyrrolo[2,3-b]quinoxalin-1-yl]-1-(4-nitro-phenyl)-ethanol], the results for the IC50 (in experiment [1] (setting [7]); on recombinant human GAPDH (Table 7)) were 100 µM and > 1000 µM, respectively. For the same compound, the “selective inhibition: Gapdhs” value in experiment [2] is “greater inhibition of Gapdhs than Gapdh”.

Regarding `OCc1nc2ccccc2[nH]1` [Compound T0504_1251, (1H-Benzoimidazol-2-yl)-methanol], the IC50 in experiment [1] (setting [7]) was > 3000 µM.

With `O=C(NNc1ccc(S(=O)(=O)Nc2ccccc2)cc1[N+](=O)[O-])Nc1cccc(C(F)(F)F)c1` [Compound T0506_1274, 2-[4-(anilinosulfonyl)-2-nitrophenyl]-N-[3-(trifluoromethyl)phenyl]hydrazinecarboxamide], the IC50 in experiment [1] (setting [4]) was found to be 1750 µM.

Regarding `C=Cn1cncc1C(=O)C(F)(F)F` [Compound T0507_5482, 2,2,2-Trifluoro-1-(3vinyl-3H-imidazol-4-yl)-ethanone], the IC50 (in experiment [1] (setting [7]); at recombinant human GAPDH (Table 7)) was > 1000 µM throughout.

For `O=C(COC(=O)CCc1c[nH]c2ccccc12)Nc1ccc(S(=O)(=O)N2CCOCC2)cc1` [Compound T0511_4909, 3-(1H-Indol-3-yl)-propionic acid [4-(morpholine-4-sulfonyl)-phenylcaramoyl]-methyl ester], the IC50 in experiment [1] (setting [7]) is 500 µM; at recombinant human GAPDH (Table 7), > 1000 µM. For the same compound, in experiment [2], the “selective inhibition: Gapdhs” value is given as “greater inhibition of Gapdhs than Gapdh”.

Turning to `CNc1cc([N+](=O)[O-])ccc1OC` [Compound T0512_4753, (2-Methoxy-5-nitro-phenyl)-methyl-amine], the IC50 (in experiment [1] (setting [8]); on recombinant human GAPDH (Table 11)) was > 1000 µM in each case.

For the compound `O=[N+]([O-])c1ccc2oc3ccccc3c2c1` [Compound T0515_4928, 2-Nitro-dibenzofuran], the IC50 in experiment [1] (setting [8]) came to 100 µM. Further, the “selective inhibition: Gapdhs” value in experiment [2] is given as “greater inhibition of Gapdhs than Gapdh”.

`CCOC(=O)Cc1nnc2c(Nc3ccc(OC)cc3)nc3nonc3n12` [LT00105955, [5-(4-Methoxy-phenylamino)-2-oxa-1,3,4,6,7,8a-hexaaza-as-indacen-8-yl]-acetic acid ethyl ester]: the concentration for half-maximal inhibition (IC50) (in experiment [1] (setting [4]); on recombinant human GAPDH (Table 9)) was > 1000 µM each time.

`C=CC(=O)NCNC(=O)C=C` [LT_00050115, N-(Acryloylamino-methyl)-acrylamide]: the IC50 (in experiment [1]; at recombinant human GAPDH (Table 11)) was > 1000 µM throughout.

Regarding `CN(C)c1ccc(C(CC(=O)c2c(O)c3ccccc3n(C)c2=O)NCc2ccncc2)cc1` (stereo not drawn) [LT_00232244, 3-{3-(4-Dimethylamino-phenyl)-3-[(pyridine-4-ylmethyl)-amino]-propionyl}-4-hydroxy-1-methyl-1H-quinolin-2-one], the IC50 in experiment [1] (setting [7]) is > 1000 µM; at recombinant human GAPDH (Table 7), 350 µM.

`Nc1nonc1-c1nc2ccccc2n1CC(=O)N/N=C\c1cc2c(cc1[N+](=O)[O-])OCO2` [LT_00237350, [2-(4-Aminofurazan-3-yl)-benzoimidazol-1-yl]-acetic acid [1-(6-nitro-benzo[1,3]dioxol-5-yl)-meth-(Z)ylidene]-hydrazide]: in experiment [1] (setting [4]), the IC50 came to 2000 µM.

`CC1=NN(C(N)=N[N+](=O)[O-])C(=O)C1` [LT_00249157, 3-methyl-5-oxo-pyrazole-1-nitro-carboxamidine]: the IC50 in experiment [1] (setting [7]) amounted to 100 µM. Besides, in experiment [2], the “selective inhibition: Gapdhs” value is recorded as “greater inhibition of Gapdhs than Gapdh”.

As for `O=C(CN1C(=O)c2ccccc2C1=O)Nc1cc(C(=O)O)cc(C(=O)O)c1` [LT_00379844, 5-[2-(1,3-Dioxo-1,3-dihydro-isoindol-2-yl)-acetylamino]-isophthalic acid], the IC50 in experiment [1] (setting [4]) was > 1000 µM.

As to `COc1cc(C=NNC(=O)Cn2cnc3c(=O)n(C)c(=O)n(C)c32)cc([N+](=O)[O-])c1O` [LT_00444480, (1,3-Dimethyl-2,6-dioxo-1,2,3,6-tetrahydro-purin-9-yl)-acetic acid (4-hydroxy-3-methoxy-5-nitro-benzylidene)-hydrazide], the IC50 (in experiment [1] (setting [4]); on recombinant human GAPDH (Table 9)) was 150 µM each time.

`CC(CC(=O)Nc1ccc(Cl)c(Cl)c1)=NNC(=O)c1cc2ccccc2cc1O` [LT_00587256, N-(3,4-Dichloro-phenyl)-3-[(3-hydroxy-naphthalene-2-carbonyl)-hyrazono]-butyramide]: in experiment [1] (setting [4]), the IC50 was determined as 5000 µM.

Take `COc1cc(C=NNc2ccc([N+](=O)[O-])cc2[N+](=O)[O-])ccc1OCC(=O)Nc1ccc(C)c(C)c1` [LT_01178124, N-(3,4-Dimethyl-phenyl)-2-{4-[(2,4-dinitro-phenyl)-hydrazonomethyl]-2-methoxy}-acetamide]: the “IC50 GAPDHS” value in experiment [1] (Table 9, 1 hour preincubation at 4° C., 0.5 mM NAD, 0.5 mM glyceraldehyde-3-phosphate) was “not soluble”.

As for `O=c1ccn([C@@H]2O[C@H](COP(=O)(O)OP(=O)(O)OP(=O)(O)O)[C@@H](O)[C@H]2O)c(=O)[nH]1` [UTP], the “inhibition of tGapdhs” value in experiment [3] was “did not inhibit”. Besides, at Recombinant mouse Gapdh, the “inhibition of Gapdhs” value is listed as “did not inhibit”.

`Nc1ncnc2c1ncn2[C@@H]1O[C@H](CO)[C@@H](O)[C@H]1O` [adenosine]: the “inhibition of tGapdhs” value in experiment [3] was “did not inhibit”. Further, the “inhibition of Gapdhs” value at Recombinant mouse Gapdh is on record as “did not inhibit”.

With `Nc1ncnc2c1ncn2[C@@H]1O[C@@H]2COP(=O)(O)O[C@H]2[C@H]1O` [cAMP, cyclic AMP], in experiment [3], the Ki worked out at 3330 µM and the “inhibition of tGapdhs” value is “dose-dependent inhibition”. Also, on Recombinant mouse Gapdh, the Ki came out at 1500 µM and the “inhibition of Gapdhs” value is on record as “dose-dependent inhibition”.

For orientation: IC50 means the concentration needed to halve the response being measured. A word on the Ki: it is a measure of affinity in units of concentration, obtained from inhibition or displacement.
